The text below walks through data of PMC7801526, “Cryo-EM structure of Helicobacter pylori urease with an inhibitor in the active site at 2.0 Å resolution” (Nature Communications, 2021).

The structures appear in SMILES notation. pKi: −log10 of the molar value.

Assay [1] addresses T1, urease, catalytic subunit UreB (Helicobacter pylori, UniProt P69996).
T1 construct: with UreA
Nature of the assay: cryo-EM structure at […] Å; phenol red assay on purified urease (IC50 […], Ki by Cheng-Prusoff). The assay is classed as biochemical.

Assay [2] has as its target T1, urease, catalytic subunit UreB. Nature of the assay: phenol red assay on purified urease (IC50 […], Ki by Cheng-Prusoff). The assay is classed as biochemical.

T1 sequence (P69996 whole entry): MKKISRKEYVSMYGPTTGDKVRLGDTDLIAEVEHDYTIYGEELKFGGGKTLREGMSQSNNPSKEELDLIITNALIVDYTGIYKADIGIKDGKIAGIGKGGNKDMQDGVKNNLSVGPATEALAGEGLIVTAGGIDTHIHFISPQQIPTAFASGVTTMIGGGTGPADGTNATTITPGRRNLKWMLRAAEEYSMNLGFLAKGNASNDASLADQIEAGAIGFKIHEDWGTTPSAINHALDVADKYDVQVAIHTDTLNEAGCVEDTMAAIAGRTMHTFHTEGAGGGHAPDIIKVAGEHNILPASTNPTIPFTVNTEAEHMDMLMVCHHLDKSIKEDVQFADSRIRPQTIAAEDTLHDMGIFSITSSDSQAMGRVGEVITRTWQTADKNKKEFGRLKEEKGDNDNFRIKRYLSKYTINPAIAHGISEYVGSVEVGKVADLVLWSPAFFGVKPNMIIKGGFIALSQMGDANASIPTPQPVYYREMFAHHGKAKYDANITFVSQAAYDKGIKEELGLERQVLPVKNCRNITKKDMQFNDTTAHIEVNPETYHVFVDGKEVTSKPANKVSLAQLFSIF
T1 sequence (P14916 whole entry, further chain): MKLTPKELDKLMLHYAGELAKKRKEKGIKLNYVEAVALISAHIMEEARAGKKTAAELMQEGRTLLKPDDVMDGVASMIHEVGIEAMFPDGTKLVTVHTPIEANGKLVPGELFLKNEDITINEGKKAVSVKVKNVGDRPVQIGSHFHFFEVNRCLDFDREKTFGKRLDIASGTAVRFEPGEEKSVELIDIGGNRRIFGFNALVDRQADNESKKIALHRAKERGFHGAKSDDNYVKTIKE

In assay [1], `OCCS` [BME, β-mercaptoethanol] showed a pKi of 3.36. As to `Cc1cc(C)cc(-n2ccnc2SCC(=O)NO)c1` [SHA, 2-{[1-(3,5-dimethylphenyl)-1H-imidazol-2-yl]sulfanyl}-N-hydroxyacetamide], the pKi in assay [2] was 6.20.
